Measurements from patent publication US6706740B2, “Fungicidal heterocyclic aromatic amides and their compositions, methods of use and preparation” (Dow AgroSciences LLC, priority 1999, dated 2004).

Test system: Septoria tritici—SEPTTR
Assay: Leaf Blotch of Wheat, in vivo whole plant, 24 Hour Protectant
Details: Zymoseptoria tritici, 24 h, wheat plants sprayed at 100 ppm, inoculated after 24 hours; control of fungal infection vs untreated plants; read-out: SEPTTR in vivo 1 Day Protectant

First: CSc1ccnc(C(=O)NC2COC(=O)[C@H](Cc3ccccc3)[C@@H](OC(=O)C(C)C)[C@H](C)OC2=O)c1O (stereo partly drawn) [Compound 478]
Second: CC(C)C(=O)O[C@H]1[C@H](C)OC(=O)[C@@H](NC(=O)c2cnccc2O)COC(=O)[C@@H]1Cc1ccccc1 [Compound 503]
The pest or weed control at 100 ppm of the first is higher: 25 to 74% for the first, under 25% for the second.

`Cc1ncc(C(=O)NC2CC(C)(C)CC(C)(C)C2)c(O)n1` [Compound 541] and `CC1(C)CC(NC(=O)c2cscc2O)CC(C)(C)C1` [Compound 554, 4-HYDROXYTHIOPHENE-N-(3,3,5,5-TETRAMETHYLCYCLOHEXYL)-3-CARBOXAMIDE] fall in the same range of pest or weed control at 100 ppm: 25 to 74% for the first, 25 to 74% for the second.

Test system: Mycosphaerella graminicola (Septoria tritici—SEPTTR)
Assay: In vitro fungal growth inhibition, Mycosphaerella graminicola (SEPTTR)
Assay type: cell-based
Details: Zymoseptoria tritici; 25 ppm in the growth medium; read-out: SEPTTR in vitro Growth Inhibition

Going from `CSc1ccnc(C(=O)NC2COC(=O)[C@H](Cc3ccccc3)[C@@H](OC(=O)C(C)C)[C@H](C)OC2=O)c1O` (stereo partly drawn) [Compound 478] to `CC(C)C(=O)O[C@H]1[C@H](C)OC(=O)[C@@H](NC(=O)c2cnccc2O)COC(=O)[C@@H]1Cc1ccccc1` [Compound 503], the inhibition at 25 ppm rises from under 80% to over 80%.

`Cc1ncc(C(=O)NC2CC(C)(C)CC(C)(C)C2)c(O)n1` [Compound 541] and `CC1(C)CC(NC(=O)c2cscc2O)CC(C)(C)C1` [Compound 554, 4-HYDROXYTHIOPHENE-N-(3,3,5,5-TETRAMETHYLCYCLOHEXYL)-3-CARBOXAMIDE] cannot be ordered by inhibition at 25 ppm: under 80% for the first, under 80% for the second.

Test system: Puccinia recondita—PUCCRT
Assay: Brown Rust of Wheat, in vivo whole plant, 24 Hour Protectant
Details: Puccinia; wheat plants sprayed at 100 ppm, inoculated after 24 hours; control of fungal infection vs untreated plants; read-out: PUCCRT in vivo 1 Day Protectant

`CSc1ccnc(C(=O)NC2COC(=O)[C@H](Cc3ccccc3)[C@@H](OC(=O)C(C)C)[C@H](C)OC2=O)c1O` (stereo partly drawn) [Compound 478] and `CC(C)C(=O)O[C@H]1[C@H](C)OC(=O)[C@@H](NC(=O)c2cnccc2O)COC(=O)[C@@H]1Cc1ccccc1` [Compound 503] fall in the same range of pest or weed control at 100 ppm: 25 to 74% for the first, 25 to 74% for the second.

First: Cc1ncc(C(=O)NC2CC(C)(C)CC(C)(C)C2)c(O)n1 [Compound 541]
Second: CC1(C)CC(NC(=O)c2cscc2O)CC(C)(C)C1 [Compound 554, 4-HYDROXYTHIOPHENE-N-(3,3,5,5-TETRAMETHYLCYCLOHEXYL)-3-CARBOXAMIDE]
The pest or weed control at 100 ppm of the first is lower: under 25% for the first, 25 to 74% for the second.

Test system: Phytophthora infestans (PHYTIN)
Assay: microbe, parasite or virus in culture
Assay type: cell-based
Details: Phytophthora infestans, read-out: PHYTIN in vitro Growth Inhibition

`CSc1ccnc(C(=O)NC2COC(=O)[C@H](Cc3ccccc3)[C@@H](OC(=O)C(C)C)[C@H](C)OC2=O)c1O` (stereo partly drawn) [Compound 478] and `CC(C)C(=O)O[C@H]1[C@H](C)OC(=O)[C@@H](NC(=O)c2cnccc2O)COC(=O)[C@@H]1Cc1ccccc1` [Compound 503] cannot be ordered by inhibition at 25 ppm: under 80% for the first, under 80% for the second.

Compared with `Cc1ncc(C(=O)NC2CC(C)(C)CC(C)(C)C2)c(O)n1` [Compound 541], `CC1(C)CC(NC(=O)c2cscc2O)CC(C)(C)C1` [Compound 554, 4-HYDROXYTHIOPHENE-N-(3,3,5,5-TETRAMETHYLCYCLOHEXYL)-3-CARBOXAMIDE] is higher in inhibition at 25 ppm: under 80% for the first, over 80% for the second.

Test system: Stagonospora nodorum (Leptosphaeria nodorum—LEPTNO)
Assay: In vitro fungal growth inhibition, Stagonospora nodorum (LEPTNO)
Assay type: cell-based
Details: Leptosphaeria; 25 ppm in the growth medium; read-out: LEPTNO in vitro Growth Inhibition

Compared with `CSc1ccnc(C(=O)NC2COC(=O)[C@H](Cc3ccccc3)[C@@H](OC(=O)C(C)C)[C@H](C)OC2=O)c1O` (stereo partly drawn) [Compound 478], `CC(C)C(=O)O[C@H]1[C@H](C)OC(=O)[C@@H](NC(=O)c2cnccc2O)COC(=O)[C@@H]1Cc1ccccc1` [Compound 503] is higher in inhibition at 25 ppm: under 80% for the first, over 80% for the second.

Compared with `Cc1ncc(C(=O)NC2CC(C)(C)CC(C)(C)C2)c(O)n1` [Compound 541], `CC1(C)CC(NC(=O)c2cscc2O)CC(C)(C)C1` [Compound 554, 4-HYDROXYTHIOPHENE-N-(3,3,5,5-TETRAMETHYLCYCLOHEXYL)-3-CARBOXAMIDE] is higher in inhibition at 25 ppm: under 80% for the first, over 80% for the second.

Test system: Rhizoctonia solani (RHIZSO)
Assay: microbe, parasite or virus in culture
Assay type: cell-based
Details: Rhizoctonia solani, read-out: RHIZSO in vitro Growth Inhibition

`CSc1ccnc(C(=O)NC2COC(=O)[C@H](Cc3ccccc3)[C@@H](OC(=O)C(C)C)[C@H](C)OC2=O)c1O` (stereo partly drawn) [Compound 478] and `CC(C)C(=O)O[C@H]1[C@H](C)OC(=O)[C@@H](NC(=O)c2cnccc2O)COC(=O)[C@@H]1Cc1ccccc1` [Compound 503] cannot be ordered by inhibition at 25 ppm: under 80% for the first, under 80% for the second.

`Cc1ncc(C(=O)NC2CC(C)(C)CC(C)(C)C2)c(O)n1` [Compound 541] and `CC1(C)CC(NC(=O)c2cscc2O)CC(C)(C)C1` [Compound 554, 4-HYDROXYTHIOPHENE-N-(3,3,5,5-TETRAMETHYLCYCLOHEXYL)-3-CARBOXAMIDE] cannot be ordered by inhibition at 25 ppm: under 80% for the first, under 80% for the second.

Test system: Ustilago maydis (USTIMA)
Assay: microbe, parasite or virus in culture
Assay type: cell-based
Details: Mycosarcoma maydis, read-out: USTIMA in vitro Growth Inhibition

`CSc1ccnc(C(=O)NC2COC(=O)[C@H](Cc3ccccc3)[C@@H](OC(=O)C(C)C)[C@H](C)OC2=O)c1O` (stereo partly drawn) [Compound 478] and `CC(C)C(=O)O[C@H]1[C@H](C)OC(=O)[C@@H](NC(=O)c2cnccc2O)COC(=O)[C@@H]1Cc1ccccc1` [Compound 503] cannot be ordered by inhibition at 25 ppm: under 80% for the first, under 80% for the second.

`Cc1ncc(C(=O)NC2CC(C)(C)CC(C)(C)C2)c(O)n1` [Compound 541] and `CC1(C)CC(NC(=O)c2cscc2O)CC(C)(C)C1` [Compound 554, 4-HYDROXYTHIOPHENE-N-(3,3,5,5-TETRAMETHYLCYCLOHEXYL)-3-CARBOXAMIDE] cannot be ordered by inhibition at 25 ppm: under 80% for the first, under 80% for the second.

Test system: Phytophthora infestans—PHYTIN
Assay: whole plant or invertebrate
Assay type: in vivo
Details: Phytophthora, in Solanum lycopersicum, 24 h, read-out: PHYTIN in vivo 1 Day Protectant

`CSc1ccnc(C(=O)NC2COC(=O)[C@H](Cc3ccccc3)[C@@H](OC(=O)C(C)C)[C@H](C)OC2=O)c1O` (stereo partly drawn) [Compound 478] and `CC(C)C(=O)O[C@H]1[C@H](C)OC(=O)[C@@H](NC(=O)c2cnccc2O)COC(=O)[C@@H]1Cc1ccccc1` [Compound 503] cannot be ordered by pest or weed control at 100 ppm: under 25% for the first, under 25% for the second.

`Cc1ncc(C(=O)NC2CC(C)(C)CC(C)(C)C2)c(O)n1` [Compound 541] and `CC1(C)CC(NC(=O)c2cscc2O)CC(C)(C)C1` [Compound 554, 4-HYDROXYTHIOPHENE-N-(3,3,5,5-TETRAMETHYLCYCLOHEXYL)-3-CARBOXAMIDE] cannot be ordered by pest or weed control at 100 ppm: under 25% for the first, under 25% for the second.

Test system: Erysiphe graminis—ERYSGT
Assay: Powdery Mildew of Wheat, in vivo whole plant, 24 Hour Protectant
Details: Erysiphe; wheat plants sprayed at 100 ppm, inoculated after 24 hours; control of fungal infection vs untreated plants; read-out: ERYSGT in vivo 1 Day Protectant

First: CSc1ccnc(C(=O)NC2COC(=O)[C@H](Cc3ccccc3)[C@@H](OC(=O)C(C)C)[C@H](C)OC2=O)c1O (stereo partly drawn) [Compound 478]
Second: CC(C)C(=O)O[C@H]1[C@H](C)OC(=O)[C@@H](NC(=O)c2cnccc2O)COC(=O)[C@@H]1Cc1ccccc1 [Compound 503]
The pest or weed control at 100 ppm of the first is lower: under 25% for the first, 25 to 74% for the second.

`Cc1ncc(C(=O)NC2CC(C)(C)CC(C)(C)C2)c(O)n1` [Compound 541] and `CC1(C)CC(NC(=O)c2cscc2O)CC(C)(C)C1` [Compound 554, 4-HYDROXYTHIOPHENE-N-(3,3,5,5-TETRAMETHYLCYCLOHEXYL)-3-CARBOXAMIDE] cannot be ordered by pest or weed control at 100 ppm: under 25% for the first, under 25% for the second.

Test system: Magnaporthe grisea (Pyricularia oryzae—PYRIOR)
Assay: microbe, parasite or virus in culture
Assay type: cell-based
Details: Pyricularia oryzae, read-out: PYRIOR in vitro Growth Inhibition

`CSc1ccnc(C(=O)NC2COC(=O)[C@H](Cc3ccccc3)[C@@H](OC(=O)C(C)C)[C@H](C)OC2=O)c1O` (stereo partly drawn) [Compound 478] and `CC(C)C(=O)O[C@H]1[C@H](C)OC(=O)[C@@H](NC(=O)c2cnccc2O)COC(=O)[C@@H]1Cc1ccccc1` [Compound 503] cannot be ordered by inhibition at 25 ppm: under 80% for the first, under 80% for the second.

First: Cc1ncc(C(=O)NC2CC(C)(C)CC(C)(C)C2)c(O)n1 [Compound 541]
Second: CC1(C)CC(NC(=O)c2cscc2O)CC(C)(C)C1 [Compound 554, 4-HYDROXYTHIOPHENE-N-(3,3,5,5-TETRAMETHYLCYCLOHEXYL)-3-CARBOXAMIDE]
The inhibition at 25 ppm of the first is lower: under 80% for the first, over 80% for the second.

Test system: not given
Assay: not given
Details: not given

First: CSc1ccnc(C(=O)NC2COC(=O)[C@H](Cc3ccccc3)[C@@H](OC(=O)C(C)C)[C@H](C)OC2=O)c1O (stereo partly drawn) [Compound 478]
Second: CC1(C)CC(NC(=O)c2cscc2O)CC(C)(C)C1 [Compound 554, 4-HYDROXYTHIOPHENE-N-(3,3,5,5-TETRAMETHYLCYCLOHEXYL)-3-CARBOXAMIDE]
The melting point of the first is higher: 184 to 187 °C for the first, 170 to 174 °C for the second.

Compound `Cc1ncc(C(=O)NC2CC(C)(C)CC(C)(C)C2)c(O)n1` [Compound 541] has a melting point of over 300 °C.
With `CC(C)C(=O)O[C@H]1[C@H](C)OC(=O)[C@@H](NC(=O)c2cnccc2O)COC(=O)[C@@H]1Cc1ccccc1` [Compound 503] the melting point was 213 to 215 °C (dec.).

Test system: Leptosphaeria nodorum—LEPTNO
Assay: Glume Blotch of Wheat, in vivo whole plant, 24 Hour Protectant
Details: Leptosphaeria; wheat plants sprayed at 100 ppm, inoculated after 24 hours; control of fungal infection vs untreated plants; read-out: LEPTNO in vivo 1 Day Protectant

`CSc1ccnc(C(=O)NC2COC(=O)[C@H](Cc3ccccc3)[C@@H](OC(=O)C(C)C)[C@H](C)OC2=O)c1O` (stereo partly drawn) [Compound 478] and `CC(C)C(=O)O[C@H]1[C@H](C)OC(=O)[C@@H](NC(=O)c2cnccc2O)COC(=O)[C@@H]1Cc1ccccc1` [Compound 503] fall in the same range of pest or weed control at 100 ppm: 25 to 74% for the first, 25 to 74% for the second.

First: Cc1ncc(C(=O)NC2CC(C)(C)CC(C)(C)C2)c(O)n1 [Compound 541]
Second: CC1(C)CC(NC(=O)c2cscc2O)CC(C)(C)C1 [Compound 554, 4-HYDROXYTHIOPHENE-N-(3,3,5,5-TETRAMETHYLCYCLOHEXYL)-3-CARBOXAMIDE]
The pest or weed control at 100 ppm of the first is lower: under 25% for the first, 25 to 74% for the second.
